Reference: patent US20250108054A1, “METHODS FOR TREATING PERSISTENT OR CHRONIC IMMUNE THROMBOCYTOPENIA IN CHILDREN, ADOLESCENTS AND ADULTS BY ADMINISTERING (R)-2-[3-[4-AMINO-3-(2-FLUORO-4-PHENOXY-PHENYL)PYRAZOLO[3,4-D]PYRIMIDIN-1-YL]PIPERIDINE-1-CARBONYL]-4-METHYL-4-[4-(OXETAN-3-YL)PIPERAZIN-1-YL]PENT-2-ENENITRILE” (Principia Biopharma Inc., priority 2023, published 2025)
Where two headings read alike, the source gives them in different places.

Legend:
ITP patients = conditions: cited from earlier work
adults with ITP = assay: response to prior ITP medication of adults enrolled in LUNA 3; assay type: in vivo, human; conditions: patients who received that medication
Source text: Eligible patients had primary ITP for a duration of >3 months for adults (age ≥18 years) and >6 months for adolescent (age 12-17 years) and pediatric patients (age […]; EU only), and two average platelet counts <30×10^9/[…] within 2 weeks before treatment (Kuter et al. 2023).
Overall, 202 adults with a median age of 47 years (range, 18-80) enrolled from 154 study sites as of Sep. 28, 2023 (see Table 3); enrollment is complete for adults and ongoing for pediatrics. Most adults were female (63%), white (62%) or Asian (32%), and not Hispanic/Latino (77%). Geographic regions enrolling patients included Asia/Pacific (35% of patients), West Europe (24% of patients), South America (17% of patients), East Europe (16% of patients), and North America (8% of patients). Patients had ITP for a median duration of 7.7 years, with 75% having a duration >3 years. […] The most common prior ITP therapies were CS (96%), TPO-RA (66%), and IVIg ([…]); patients' prior responses are shown in Table 3.

[1] = biological target: T1, tyrosine protein kinase TEC (Homo sapiens, UniProt P42680); assay: kinase enzyme inhibition, TEC; assay type: biochemical
T1 sequence (P42680 1-631): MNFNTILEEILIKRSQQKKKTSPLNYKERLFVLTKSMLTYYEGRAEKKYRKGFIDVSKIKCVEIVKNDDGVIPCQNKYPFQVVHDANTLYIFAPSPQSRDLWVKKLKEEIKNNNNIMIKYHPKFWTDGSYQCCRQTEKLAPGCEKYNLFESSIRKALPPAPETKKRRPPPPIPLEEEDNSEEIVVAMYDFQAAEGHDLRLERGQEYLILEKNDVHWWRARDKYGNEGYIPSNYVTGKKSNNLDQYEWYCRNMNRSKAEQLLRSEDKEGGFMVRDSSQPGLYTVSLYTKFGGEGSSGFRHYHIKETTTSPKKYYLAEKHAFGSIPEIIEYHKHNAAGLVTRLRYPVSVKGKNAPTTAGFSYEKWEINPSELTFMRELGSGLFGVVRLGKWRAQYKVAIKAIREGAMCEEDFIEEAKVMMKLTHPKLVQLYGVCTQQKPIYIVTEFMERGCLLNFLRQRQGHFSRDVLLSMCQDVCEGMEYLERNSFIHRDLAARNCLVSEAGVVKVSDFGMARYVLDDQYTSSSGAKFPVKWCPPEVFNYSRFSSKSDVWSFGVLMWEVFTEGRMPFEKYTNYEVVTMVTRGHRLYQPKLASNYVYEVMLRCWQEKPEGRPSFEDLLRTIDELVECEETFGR

[2] = tested on: patients with relapsed ITP; conditions: for median PVI: main treatment period
[3] = humans, oral administration; cited from earlier work
[4] = biological target: T2, (Homo sapiens, UniProt P42681); assay: kinase enzyme inhibition, RLK; assay type: biochemical
T2 sequence (P42681 1-527): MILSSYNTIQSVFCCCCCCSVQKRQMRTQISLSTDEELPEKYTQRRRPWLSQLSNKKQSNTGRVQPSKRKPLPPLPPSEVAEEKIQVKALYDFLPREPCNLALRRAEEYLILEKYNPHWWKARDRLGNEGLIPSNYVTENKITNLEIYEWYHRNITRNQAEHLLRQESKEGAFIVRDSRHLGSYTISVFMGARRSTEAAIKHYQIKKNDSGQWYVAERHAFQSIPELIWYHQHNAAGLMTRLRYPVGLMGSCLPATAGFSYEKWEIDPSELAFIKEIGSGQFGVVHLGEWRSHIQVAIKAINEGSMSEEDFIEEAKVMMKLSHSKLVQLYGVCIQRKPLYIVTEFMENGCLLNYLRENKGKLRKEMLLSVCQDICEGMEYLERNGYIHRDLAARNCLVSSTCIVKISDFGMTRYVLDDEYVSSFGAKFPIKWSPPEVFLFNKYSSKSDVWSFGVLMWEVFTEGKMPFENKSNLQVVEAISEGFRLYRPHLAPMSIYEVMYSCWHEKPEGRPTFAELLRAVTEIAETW

[5] = biological target: B cell lymphocyte kinase (BLK) (Homo sapiens, UniProt P51451); assay: kinase enzyme inhibition, BLK; assay type: biochemical
[6] = biological target: T3, bone marrow tyrosine kinase on chromosome X (BMX) (Homo sapiens, UniProt P51813); assay: kinase enzyme inhibition, BMX; assay type: biochemical
T3 sequence (P51813 1-675): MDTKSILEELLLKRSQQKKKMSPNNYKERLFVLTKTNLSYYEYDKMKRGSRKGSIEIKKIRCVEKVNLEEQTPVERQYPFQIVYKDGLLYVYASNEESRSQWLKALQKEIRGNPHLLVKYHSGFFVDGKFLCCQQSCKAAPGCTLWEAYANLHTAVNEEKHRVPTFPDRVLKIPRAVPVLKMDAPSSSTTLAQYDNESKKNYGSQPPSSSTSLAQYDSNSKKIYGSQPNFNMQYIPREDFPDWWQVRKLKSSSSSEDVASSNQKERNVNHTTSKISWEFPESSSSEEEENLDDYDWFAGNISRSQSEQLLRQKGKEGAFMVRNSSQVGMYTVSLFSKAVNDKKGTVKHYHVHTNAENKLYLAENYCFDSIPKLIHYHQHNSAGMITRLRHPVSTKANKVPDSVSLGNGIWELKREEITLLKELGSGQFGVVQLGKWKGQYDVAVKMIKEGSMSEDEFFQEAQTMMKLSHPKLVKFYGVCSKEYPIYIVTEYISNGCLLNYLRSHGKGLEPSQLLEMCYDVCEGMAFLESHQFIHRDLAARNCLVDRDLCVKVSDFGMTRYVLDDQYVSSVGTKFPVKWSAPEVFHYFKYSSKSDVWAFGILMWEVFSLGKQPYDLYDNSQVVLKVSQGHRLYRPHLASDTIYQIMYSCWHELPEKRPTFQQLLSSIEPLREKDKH

platelet aggregation = conditions: healthy volunteers or patients with ITP; cited from earlier work
251 kinases = assay: broad kinase enzyme inhibition panel; assay type: biochemical; conditions: 1 μM; of 251 kinases
mouse model of ITP = assay: mouse model of ITP; assay type: in vivo
Fc receptor signaling = assay: antibody (IgG, IgE) mediated activation of immune cells in vitro; assay type: cell-based
other TEC family members = assay: preclinical assay of persistence of binding, other TEC family members
[7] = tested on: adult patients with persistent or chronic ITP; assay: LUNA 3 phase 3 double-blind placebo-controlled study; conditions: for Number of weeks with platelet counts 50 × 10^9/L, LSmean (SE) / Number of weeks with platelet counts between ≥30 × 10^9/L and <50 × 10^9/L and at least doubled from baseline, LSmean (SE): absence of rescue medication; for Time to platelet response, Median (95% CI): N = 133
ERBB4 = ERBB4 (Homo sapiens, UniProt Q15303); assay: kinase enzyme inhibition, ERBB4; assay type: biochemical
human B cell activation = human B cell activation in vitro; assay type: cell-based
BTK enzyme = BTK enzyme (Homo sapiens, UniProt Q06187); conditions: healthy volunteers, doses providing 100% BTK occupancy; cited from earlier work
[8] = 400 mg BID, 24-week blinded period
[9] = 400 mg BID, 24-week blinded period, listed as Rilzabrutinib

Sequence of ERBB4 (Q15303 26-1308, species assumed): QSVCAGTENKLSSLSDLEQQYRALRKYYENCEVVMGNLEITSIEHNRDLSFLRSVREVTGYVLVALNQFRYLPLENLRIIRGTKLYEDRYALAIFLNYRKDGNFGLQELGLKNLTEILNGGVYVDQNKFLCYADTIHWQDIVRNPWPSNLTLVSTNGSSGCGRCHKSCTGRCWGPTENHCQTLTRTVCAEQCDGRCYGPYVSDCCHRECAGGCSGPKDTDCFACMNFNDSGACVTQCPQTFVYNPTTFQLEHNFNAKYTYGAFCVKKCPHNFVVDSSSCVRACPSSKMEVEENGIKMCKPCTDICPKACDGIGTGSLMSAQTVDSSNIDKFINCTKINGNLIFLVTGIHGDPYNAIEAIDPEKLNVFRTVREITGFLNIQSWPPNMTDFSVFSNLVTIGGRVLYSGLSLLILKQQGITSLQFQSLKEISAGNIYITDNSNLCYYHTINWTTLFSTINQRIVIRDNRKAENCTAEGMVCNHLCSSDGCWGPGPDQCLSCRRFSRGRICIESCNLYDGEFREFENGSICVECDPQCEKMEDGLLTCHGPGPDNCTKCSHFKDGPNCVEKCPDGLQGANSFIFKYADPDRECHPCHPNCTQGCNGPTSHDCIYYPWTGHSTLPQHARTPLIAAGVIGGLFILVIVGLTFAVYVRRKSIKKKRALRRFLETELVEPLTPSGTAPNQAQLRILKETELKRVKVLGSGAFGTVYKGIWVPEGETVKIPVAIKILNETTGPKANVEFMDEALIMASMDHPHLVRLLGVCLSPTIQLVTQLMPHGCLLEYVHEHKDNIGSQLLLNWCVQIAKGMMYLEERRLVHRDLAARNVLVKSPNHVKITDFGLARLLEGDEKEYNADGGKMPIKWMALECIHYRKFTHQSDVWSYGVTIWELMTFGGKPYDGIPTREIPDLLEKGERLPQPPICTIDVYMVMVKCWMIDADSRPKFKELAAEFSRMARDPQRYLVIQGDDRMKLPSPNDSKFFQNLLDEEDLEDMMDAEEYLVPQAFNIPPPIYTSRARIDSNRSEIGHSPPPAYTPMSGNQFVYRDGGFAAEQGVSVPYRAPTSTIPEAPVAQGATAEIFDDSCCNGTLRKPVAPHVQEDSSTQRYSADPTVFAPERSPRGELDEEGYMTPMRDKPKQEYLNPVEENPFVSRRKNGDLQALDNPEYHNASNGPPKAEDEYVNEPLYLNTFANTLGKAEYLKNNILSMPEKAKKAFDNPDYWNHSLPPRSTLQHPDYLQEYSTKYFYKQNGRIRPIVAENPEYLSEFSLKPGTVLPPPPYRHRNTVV
Sequence of B cell lymphocyte kinase (BLK) (P51451 whole entry, species assumed): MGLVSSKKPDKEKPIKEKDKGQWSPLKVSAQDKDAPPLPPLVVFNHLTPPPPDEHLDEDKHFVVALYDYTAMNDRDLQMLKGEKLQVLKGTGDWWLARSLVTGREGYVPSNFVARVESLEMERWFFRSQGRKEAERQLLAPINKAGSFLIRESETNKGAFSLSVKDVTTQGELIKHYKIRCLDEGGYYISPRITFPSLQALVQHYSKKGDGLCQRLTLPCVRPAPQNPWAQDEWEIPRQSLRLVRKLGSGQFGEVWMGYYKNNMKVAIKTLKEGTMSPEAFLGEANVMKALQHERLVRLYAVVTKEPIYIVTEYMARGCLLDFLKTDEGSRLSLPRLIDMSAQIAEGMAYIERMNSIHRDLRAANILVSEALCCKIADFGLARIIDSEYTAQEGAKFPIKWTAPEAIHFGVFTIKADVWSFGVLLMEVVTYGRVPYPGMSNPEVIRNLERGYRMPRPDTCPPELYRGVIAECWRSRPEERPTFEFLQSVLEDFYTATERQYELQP
Sequence of BTK enzyme (Q06187 whole entry): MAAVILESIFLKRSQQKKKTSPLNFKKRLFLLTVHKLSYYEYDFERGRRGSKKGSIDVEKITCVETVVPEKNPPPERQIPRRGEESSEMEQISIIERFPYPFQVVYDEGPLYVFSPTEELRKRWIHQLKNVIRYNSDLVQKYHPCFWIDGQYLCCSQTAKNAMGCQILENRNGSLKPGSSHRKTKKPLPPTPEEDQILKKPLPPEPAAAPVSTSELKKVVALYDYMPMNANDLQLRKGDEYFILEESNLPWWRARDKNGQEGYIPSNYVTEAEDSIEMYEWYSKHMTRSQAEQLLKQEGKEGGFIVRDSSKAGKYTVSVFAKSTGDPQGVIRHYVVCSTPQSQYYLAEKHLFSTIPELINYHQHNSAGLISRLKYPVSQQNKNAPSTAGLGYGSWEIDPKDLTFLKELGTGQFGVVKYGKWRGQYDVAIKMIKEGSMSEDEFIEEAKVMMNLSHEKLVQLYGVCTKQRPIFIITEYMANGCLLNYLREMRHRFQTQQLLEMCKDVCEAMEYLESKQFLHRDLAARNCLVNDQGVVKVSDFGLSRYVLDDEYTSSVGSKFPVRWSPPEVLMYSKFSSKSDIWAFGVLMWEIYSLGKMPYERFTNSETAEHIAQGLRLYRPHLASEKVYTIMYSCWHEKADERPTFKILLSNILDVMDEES

COc1cc(Nc2ncc(F)c(Nc3ccc4c(n3)N(COP(=O)(O)O)C(=O)C(C)(C)O4)n2)cc(OC)c1OC [fostamatinib]
durable response rate (ITP patients; heavily pretreated ITP patients): ~18% | Response to prior ITP medication (resulted in platelet count ≥50 × 10^9/L), % (adults with ITP): (30) % | Response to prior ITP medication (resulted in platelet count ≥50 × 10^9/L), n/n (adults with ITP): 7/23

CC(C)(C=C(C#N)C(=O)N1CCC[C@@H](n2nc(-c3ccc(Oc4ccccc4)cc3F)c3c(N)ncnc32)C1)N1CCN(C2COC2)CC1 (mixture of isomers) [rilzabrutinib, (R)-2-[3-[4-amino-3-(2-fluoro-4-phenoxy-phenyl)pyrazolo[3,4-d]pyrimidin-1-yl]piperidine-1-carbonyl]-4-methyl-4-[4-(oxetan-3-yl)piperazin-1-yl]pent-2-enenitrile]
IC50 [1]: 0.8 nM | tolerability ([2]; Part A): generally well tolerated | bleeding (IBLS score) ([2]; Part B): no evidence of increased bleeding | median platelet counts maintained ([2]; Part B, 400 mg BID, throughout main treatment period and LTE): ≥ 5e+10 µL⁻¹ | HRQOL ([2]; Part B, multiple individual and overall HRQOL health domains): Clinically meaningful improvements | median PVI ([2]; non-responding patients): 3 | median PVI ([2]; responding patients): 2 | absorption [3]: rapidly absorbed | half-life [3]: 3 to 4 h | IC50 [4]: 1.2 nM | IC50 [5]: 6.3 nM | IC50 [6]: 1 nM | effect on platelet aggregation (platelet aggregation): does not alter platelet aggregation | number of kinases with >90% inhibition (251 kinases): 6 | platelet-loss (consumption) (mouse model of ITP): significant dose dependent reduction | antibody (IgG, IgE) mediated activation of immune cells via Fc receptor signaling (Fc receptor signaling): blocks | binding to other TEC family members over time (other TEC family members): decayed rapidly over time | day by which 25% of participants achieved a platelet response ([7]; 400 mg BID): 10 days | median time to rescue therapy ([7]; 400 mg BID): never reached the median | Number of weeks with platelet counts 50 × 10^9/L, LSmean Difference (95% CI) vs placebo [7, 8]: 6.46 (4.923, 7.990) weeks | Number of weeks with platelet counts between ≥30 × 10^9/L and <50 × 10^9/L and at least doubled from baseline, LSmean Difference (95% CI) vs placebo [7, 8]: 6.31 (4.787, 7.831) weeks | Number of weeks with platelet counts 50 × 10^9/L, LSmean (SE) [7, 8]: 7 weeks | Number of weeks with platelet counts between ≥30 × 10^9/L and <50 × 10^9/L and at least doubled from baseline, LSmean (SE) [7, 8]: 7 weeks | Number of weeks with platelet counts 50 × 10^9/L, LSmean (SE) [7, 9]: 7.18 (0.747) weeks | Number of weeks with platelet counts between ≥30 × 10^9/L and <50 × 10^9/L and at least doubled from baseline, LSmean (SE) [7, 9]: 6.95 (0.749) weeks | Durable response, Difference (95% CI) vs placebo ([7]; 400 mg BID, 24-week double-blind period): 23.1 (15.95, 30.31) % | Time to platelet response, Median (95% CI) ([7]; 400 mg BID): 36 days | Time to platelet response, Median (95% CI) ([7]; 400 mg BID, listed as Rilzabrutinib): 36 (22, 44) days | tolerability ([7]; 400 mg BID, adult patients with ITP): generally well tolerated | reduction in the need for rescue therapy ([7]; 400 mg BID, vs placebo): 52% | ITP-PAQ physical fatigue score, Change from baseline, LSmean Difference (95% CI) vs placebo ([7]; At Week 13): 8.08 (1.818, 14.337) | ITP-PAQ physical fatigue score, Change from baseline, LSmean (SE) ([7]; At Week 13, 400 mg BID): 7.95 (2.132) | Bleeding as assessed by IBLS, Change from baseline, LSmean Difference (95% CI) vs placebo ([7]; At Week 25): −0.087 (−0.1358, −0.0373) | ITP-PAQ physical fatigue score, Change from baseline, LSmean Difference (95% CI) vs placebo ([7]; At Week 25): 11.95 (5.416, 18.493) | Bleeding as assessed by IBLS, Change from baseline, LSmean (SE) ([7]; At Week 25, 400 mg BID): −0.040 (0.0169) | ITP-PAQ physical fatigue score, Change from baseline, LSmean (SE) ([7]; At Week 25, 400 mg BID): 4.69 (2.263) | Bleeding as assessed by IBLS, Change from baseline, LSmean (SE) ([7]; At Week 25, 400 mg BID, listed as Rilzabrutinib): −0.040 (0.0169) ^ | TEAE diarrhea, participants ([7]; rilzabrutinib arm): 32.3% | TEAE headache, participants ([7]; rilzabrutinib arm): 18% | TEAE nausea, participants ([7]; rilzabrutinib arm): 20.3% | IC50 (ERBB4): 11 nM | human B cell activation (human B cell activation): profoundly inhibits

Rituximab: Anti-CD20 monoclonal antibody, second line ITP therapy
durable on-treatment response rates (ITP patients; ITP, second line therapy): 60-80% | Response to prior ITP medication (resulted in platelet count ≥50 × 10^9/L), % (adults with ITP): (32) % | Response to prior ITP medication (resulted in platelet count ≥50 × 10^9/L), n/n (adults with ITP): 22/68

C=CC(=O)Nc1cccc(Nc2nc(Nc3ccc(OCCOC)cc3)ncc2F)c1 [CC-292]
tolerability (BTK enzyme): well tolerated
